# Laboratory results published in article PMC6664820, “Novel natural and synthetic inhibitors of solute carriers SGLT1 and SGLT2” (Pharmacology Research & Perspectives, 2019).
# Structures can show the parent of a compound that is named as a salt.
# What was measured:
# SGLT1 = target: T1, SGLT1 (Homo sapiens, UniProt P13866); assay: SGLT1 inhibition assay for validation of screening hits and similar compounds (1‐NBD‐glucose uptake, CHO‐hSGLT1 cells); assay type: cell-based; parameters: activity: dose or concentration left out as unconfirmed; conditions: mean; for activity: compound, normalized 1-NBD-glucose uptake, CHO-hSGLT1 cells
# T1 sequence (P13866 1-664): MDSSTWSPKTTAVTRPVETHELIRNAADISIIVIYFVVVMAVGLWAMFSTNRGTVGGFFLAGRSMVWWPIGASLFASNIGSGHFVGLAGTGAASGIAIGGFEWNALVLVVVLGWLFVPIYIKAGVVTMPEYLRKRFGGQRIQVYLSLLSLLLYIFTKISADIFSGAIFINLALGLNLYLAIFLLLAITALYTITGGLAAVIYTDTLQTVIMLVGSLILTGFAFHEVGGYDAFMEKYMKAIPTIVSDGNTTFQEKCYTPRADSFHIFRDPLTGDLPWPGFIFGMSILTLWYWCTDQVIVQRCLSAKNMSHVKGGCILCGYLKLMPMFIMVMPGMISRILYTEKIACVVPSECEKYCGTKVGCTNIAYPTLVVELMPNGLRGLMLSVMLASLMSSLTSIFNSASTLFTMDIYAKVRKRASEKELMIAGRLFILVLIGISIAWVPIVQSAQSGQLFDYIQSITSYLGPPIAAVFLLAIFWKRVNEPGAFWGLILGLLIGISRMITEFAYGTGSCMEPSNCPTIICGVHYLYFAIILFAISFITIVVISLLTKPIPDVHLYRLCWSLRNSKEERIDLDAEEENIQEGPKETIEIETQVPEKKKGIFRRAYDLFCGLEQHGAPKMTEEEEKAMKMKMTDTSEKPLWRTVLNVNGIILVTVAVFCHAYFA
# hSGLT2 = target: T2, hSGLT2 (Homo sapiens, UniProt P31639); assay: SGLT2 inhibition assay for validation of screening hits and similar compounds (1‐NBD‐glucose uptake, CHO‐hSGLT2 cells); assay type: cell-based; parameters: activity: dose or concentration left out as unconfirmed; conditions: for activity: compound, normalized 1-NBD-glucose uptake, CHO-hSGLT2 cells; for SGLT2/SGLT1 ACTIVITY RATIO 5 uM Mean: ratio of normalized SGLT2 to SGLT1 activity at 5 uM; for SGLT2/SGLT1 ACTIVITY RATIO, first concentration / SGLT2/SGLT1 ACTIVITY RATIO, second concentration: ratio of normalized SGLT2 to SGLT1 activity
# T2 sequence (P31639 1-672): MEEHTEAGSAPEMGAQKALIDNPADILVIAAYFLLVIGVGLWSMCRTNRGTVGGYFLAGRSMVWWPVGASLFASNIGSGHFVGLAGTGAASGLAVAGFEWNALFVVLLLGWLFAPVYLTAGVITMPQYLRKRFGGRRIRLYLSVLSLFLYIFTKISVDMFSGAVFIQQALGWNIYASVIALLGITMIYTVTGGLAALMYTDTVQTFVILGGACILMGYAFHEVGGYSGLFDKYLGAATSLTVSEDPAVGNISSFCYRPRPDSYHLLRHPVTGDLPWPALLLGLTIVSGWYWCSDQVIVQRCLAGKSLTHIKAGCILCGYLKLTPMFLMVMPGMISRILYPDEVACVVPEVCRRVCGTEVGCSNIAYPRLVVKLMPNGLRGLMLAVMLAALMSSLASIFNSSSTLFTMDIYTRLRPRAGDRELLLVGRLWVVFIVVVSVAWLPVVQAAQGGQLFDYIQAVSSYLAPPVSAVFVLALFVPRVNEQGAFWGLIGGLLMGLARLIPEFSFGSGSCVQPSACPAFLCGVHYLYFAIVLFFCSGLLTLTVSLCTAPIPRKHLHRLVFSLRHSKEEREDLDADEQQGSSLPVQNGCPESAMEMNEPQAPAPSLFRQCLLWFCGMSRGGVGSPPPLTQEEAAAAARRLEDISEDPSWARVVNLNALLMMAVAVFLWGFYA
# CHO‐hSGLT1/2 cells = assay: Cytotoxicity assay (ToxiLight, adenylate kinase leakage into CHO‐SGLT1/2 inhibition assay media); parameters: CYTOTOXICITY / CY[…], mean / CYTOTOXICITY (% of vehicle control) Mean / CYTOTOXICITY, mean / CY[…] (% of vehicle control) Mean: dose or concentration left out as unconfirmed; conditions: for CYTOTOXICITY, mean: ToxiLight, adenylate kinase leakage;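 as to all read-outs here: bioluminescent read-out of adenylate kinase released from lysed cells into the medium, given relative to DMSO vehicle control defined as 0%, higher meaning more cytolysis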
# Method: The cytotoxicity of representative SGLT1/2 inhibitors and compounds from the different chemical clusters was tested. Cytotoxicity was determined using the ToxiLight bioassay kit according to the supplier's instructions. This nondestructive assay measures leakage of the enzyme adenylate kinase (AK) from damaged cells into the CHO‐SGLT1/2 inhibition assay media, ie the degree of cytolysis. […] Next, bioluminescence was measured using a FlexStation 3 Multi‐Mode Microplate Reader (Molecular Devices) by 1 second integrated reading. Cytotoxicity was expressed as the percentage of bioluminescence of the DMSO vehicle control which was set at 0%. If applicable, statistical outliers were determined using Grubbs’ test (alpha = 0.05) and excluded for calculation of the mean ± SD.
# [1] = 0.5 h, concentration not given, read-out: NORMALIZED SGLT1 ACTIVITY (%)
# [2] = 0.5 h, mean, concentration not given, read-out: NORMALIZED SGLT2 ACTIVITY (%)
smiles,measurement,setting,value
OC(CCN1CCCCC1)(c1ccccc1)C1CC2C=CC1C2 (stereo not drawn) [Biperiden HCl],activity,SGLT1,79%
same,activity,hSGLT2; mean,75%
same,SGLT2/SGLT1 ACTIVITY RATIO 5 uM Mean,hSGLT2,0.949
same,CY[…] (% of vehicle control) Mean,CHO‐hSGLT1/2 cells; mean,-7 % of vehicle control
CCCCN1CCCCC1C(=O)Nc1c(C)cccc1C (stereo not drawn) [Bupivacaine HCl monohydrate],remaining activity at 5 µM,SGLT1; [1],68%
same,remaining activity at 50 µM,SGLT1; [1],36%
same,remaining activity at 5 µM,hSGLT2; [2],72%
same,remaining activity at 50 µM,hSGLT2; [2],50%
same,CY[…] 50 mM,"CHO‐hSGLT1/2 cells; mean, at 50 mM (so in the source)",-2.27
CCN(CC)CCOC(=O)C1(c2ccccc2)CCCC1 [Caramiphen HCl],activity,SGLT1,101%
same,activity,hSGLT2; mean,88%
same,SGLT2/SGLT1 ACTIVITY RATIO 5 uM Mean,hSGLT2,0.9
same,CYTOTOXICITY (% of vehicle control) Mean,CHO‐hSGLT1/2 cells; mean,-5.41 % of vehicle control
CC1(C)C(=O)C=C[C@@]2(C)C1=C(O)C(=O)[C@]1(C)[C@@H]2CC[C@@]2(C)[C@H](c3ccoc3)C[C@H]3O[C@]321 [Cedrelone],"SGLT2/SGLT1 ACTIVITY RATIO, first concentration",hSGLT2,1.2
same,"SGLT2/SGLT1 ACTIVITY RATIO, second concentration",hSGLT2,1.1
same,"CYTOTOXICITY, mean",CHO‐hSGLT1/2 cells,-26
CNCCCN1c2ccccc2CCc2ccccc21 [Desipramine HCl],SGLT2/SGLT1 ACTIVITY RATIO 5 uM Mean,hSGLT2,0.759
same,CY[…] (% of vehicle control) Mean,CHO‐hSGLT1/2 cells; mean,-19 % of vehicle control
CCN(CC)CCOC(=O)C(c1ccccc1)C1CCCCC1 (stereo not drawn) [Drofenine HCl],activity,hSGLT2; mean,72%
same,CY[…] (% of vehicle control) Mean,CHO‐hSGLT1/2 cells; mean,1.71 % of vehicle control
COc1cc2c(=O)c(-c3ccc(O)cc3)coc2cc1O[C@@H]1O[C@H](CO)[C@@H](O)[C@H](O)[C@H]1O [Glycitin],activity,hSGLT2; mean,106%
same,SGLT2/SGLT1 ACTIVITY RATIO 5 uM Mean,hSGLT2,1.1
same,CYTOTOXICITY (% of vehicle control) Mean,CHO‐hSGLT1/2 cells; mean,-22 % of vehicle control
O=C1C[C@@H](c2ccc(O[C@@H]3O[C@H](CO)[C@@H](O)[C@H](O)[C@H]3O)cc2)Oc2cc(O)ccc21 [Liquiritin],activity,hSGLT2; mean,101%
same,SGLT2/SGLT1 ACTIVITY RATIO 5 uM Mean,hSGLT2,1.0
same,CYTOTOXICITY (% of vehicle control) Mean,CHO‐hSGLT1/2 cells; mean,-10 % of vehicle control
CN1CCOC(c2ccccc2)c2ccccc2C1 (stereo not drawn) [Nefopam HCl],SGLT2/SGLT1 ACTIVITY RATIO 5 uM Mean,hSGLT2,0.9
same,CY[…] (% of vehicle control) Mean,CHO‐hSGLT1/2 cells; mean,-25 % of vehicle control
CC1(C)OC(=O)C=C[C@]2(C)[C@H]3CC[C@@]4(C)[C@H](c5ccoc5)OC(=O)[C@H]5O[C@]54[C@]3(C)C(=O)C[C@@H]12 [Obacunone],"SGLT2/SGLT1 ACTIVITY RATIO, first concentration",hSGLT2,1.2
same,"SGLT2/SGLT1 ACTIVITY RATIO, second concentration",hSGLT2,1.1
same,"CYTOTOXICITY, mean",CHO‐hSGLT1/2 cells,-21
CC=C(C)C(=O)O[C@H]1c2c(ccc3ccc(=O)oc23)OC(C)(C)[C@H]1OC(=O)C(C)=CC [Praeruptorin B - JR MediChem],SGLT2/SGLT1 ACTIVITY RATIO 5 uM Mean,hSGLT2,0.9
same,CYTOTOXICITY (% of vehicle control) Mean,CHO‐hSGLT1/2 cells; mean,-19 % of vehicle control
CC(=O)O[C@@H]1C[C@H](O)[C@@]23CO[C@@H](O)[C@]1(C)[C@@H]2C[C@@H](O)[C@]1(C)[C@@H]3C(=O)[C@H](OC(C)=O)[C@@]2(C)[C@H](c3ccoc3)C[C@H]3O[C@]321 [Toosendanin],"SGLT2/SGLT1 ACTIVITY RATIO, first concentration",hSGLT2,1.0
same,"SGLT2/SGLT1 ACTIVITY RATIO, second concentration",hSGLT2,1.0
same,"CYTOTOXICITY, mean",CHO‐hSGLT1/2 cells,-4.53
CC(CN(C)C)CN1c2ccccc2CCc2ccccc21 (stereo not drawn) [Trimipramine maleate],activity,hSGLT2; mean,87%
same,SGLT2/SGLT1 ACTIVITY RATIO 5 uM Mean,hSGLT2,1.0
same,CY[…] (% of vehicle control) Mean,CHO‐hSGLT1/2 cells; mean,-9 % of vehicle control
CC1(C)C(=O)C=C[C@@]2(C)C1=C(O)C(=O)[C@]1(C)[C@@H]2[C@@H](O)CC2=C(c3ccoc3)C[C@@H](O)[C@]21C [Walsuronoid B],"SGLT2/SGLT1 ACTIVITY RATIO, first concentration",hSGLT2,0.9
same,"SGLT2/SGLT1 ACTIVITY RATIO, second concentration",hSGLT2,1.0
same,"CYTOTOXICITY, mean",CHO‐hSGLT1/2 cells,-23
